Results reported in PMC6300691, “Enhancement of Heat Stability and Kinetic Parameters of the Maize Endosperm ADP-Glucose Pyrophosphorylase by Mutagenesis of Amino Acids in the Small Subunit With High B Factors” (Frontiers in Plant Science, 2018).
Positions count from the first letter of the chain named.

Experiments:
Assay type in all cases: biochemical
K402R = molecular target: T1, K402R (Zea mays, UniProt P55241+Q947C0, K402R); test: Activation constant from initial rates with varied 3-PGA (0-1 mM) at 2 mM ATP and 2 mM G-1-P, pH 7.4, 15 mM MgCl2, fitted to V = Vmin + Vmax*X/(Ka + X).
T1 construct: BT2 variant with wild type SH2, E. coli, purified
Description: (§1) All reactions were developed as above.

SH2-E = molecular target: T2, SH2-E (Zea mays, UniProt P55241+Q947C0, N131R/T142F/A160T/Q261S/A396S/V416I/C424V/S444A); test: as above
T2 construct: SH2-E with wild type BT2 (SH2-E/BT2-WT), E. coli, purified
T2 sequence (Q947C0 1-475): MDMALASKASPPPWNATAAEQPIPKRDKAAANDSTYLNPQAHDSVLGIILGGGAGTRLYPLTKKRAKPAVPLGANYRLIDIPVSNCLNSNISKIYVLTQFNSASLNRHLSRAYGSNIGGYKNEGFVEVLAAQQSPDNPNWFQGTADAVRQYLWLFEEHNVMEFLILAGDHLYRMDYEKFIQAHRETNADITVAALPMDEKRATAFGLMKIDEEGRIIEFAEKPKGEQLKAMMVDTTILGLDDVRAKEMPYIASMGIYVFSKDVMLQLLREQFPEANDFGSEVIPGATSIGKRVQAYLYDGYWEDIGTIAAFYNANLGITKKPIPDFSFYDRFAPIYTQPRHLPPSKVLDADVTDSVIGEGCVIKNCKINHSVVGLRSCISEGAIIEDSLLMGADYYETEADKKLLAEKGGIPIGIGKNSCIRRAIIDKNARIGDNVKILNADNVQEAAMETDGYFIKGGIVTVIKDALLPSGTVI
T2 sequence (P55241 46-516 N131R/T142F/A160T/Q261S/A396S/V416I/C424V/S444A): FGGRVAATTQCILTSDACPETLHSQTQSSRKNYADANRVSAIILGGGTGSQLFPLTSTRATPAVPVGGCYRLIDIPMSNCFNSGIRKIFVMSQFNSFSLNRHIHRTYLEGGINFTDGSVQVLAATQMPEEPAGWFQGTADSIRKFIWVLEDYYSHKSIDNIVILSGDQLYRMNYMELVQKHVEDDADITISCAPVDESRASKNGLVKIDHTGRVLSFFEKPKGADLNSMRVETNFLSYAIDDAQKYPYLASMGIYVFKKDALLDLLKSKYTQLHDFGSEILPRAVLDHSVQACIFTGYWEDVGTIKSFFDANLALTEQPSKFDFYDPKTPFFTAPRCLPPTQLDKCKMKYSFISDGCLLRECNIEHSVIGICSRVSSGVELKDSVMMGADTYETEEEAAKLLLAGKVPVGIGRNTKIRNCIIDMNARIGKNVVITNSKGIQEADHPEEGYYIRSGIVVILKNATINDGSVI
Description: as §1

SH2-ISM/BT2-BF [1] = molecular target: T3, SH2-ISM/BT2-BF (Zea mays, UniProt P55241+Q947C0, Q96G/E123G/D161G/R331K/K402R/A443R); test: as above
T3 construct: SH2-ISM co-expressed with BT2-BF, E. coli, purified
T3 sequence (Q947C0 1-475 E123G/R331K/K402R): T2 sequence (Q947C0 1-475) with E123G, R331K, K402R
T3 sequence (P55241 46-516 Q96G/D161G/A443R): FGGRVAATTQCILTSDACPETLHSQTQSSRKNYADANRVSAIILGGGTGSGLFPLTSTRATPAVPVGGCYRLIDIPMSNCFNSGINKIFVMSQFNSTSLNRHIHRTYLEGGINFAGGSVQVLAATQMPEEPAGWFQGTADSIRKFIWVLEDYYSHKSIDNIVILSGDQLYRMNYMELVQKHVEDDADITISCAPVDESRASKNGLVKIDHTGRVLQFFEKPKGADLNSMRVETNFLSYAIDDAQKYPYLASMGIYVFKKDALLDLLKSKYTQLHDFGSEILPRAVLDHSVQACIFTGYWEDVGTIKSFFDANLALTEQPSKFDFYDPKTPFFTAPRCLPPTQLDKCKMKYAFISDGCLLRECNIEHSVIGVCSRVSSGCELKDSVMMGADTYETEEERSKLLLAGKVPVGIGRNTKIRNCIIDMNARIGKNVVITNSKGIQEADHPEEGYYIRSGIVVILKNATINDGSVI
Description: as §1

R331K = molecular target: T4, R331K (Zea mays, UniProt P55241+Q947C0, R331K); test: as above
T4 construct: BT2 variant with wild type SH2, E. coli, purified
Description: as §1

[2] = molecular target: T5, E123G, R331K, K402R, L404H (Zea mays, UniProt P55241+Q947C0, E123G/R331K/K402R/L404H); test: as above
T5 construct: BT2 quadruple variant with wild type SH2, E. coli, purified
Description: as §1

SH2-E/BT2-BF = molecular target: T6, SH2-E/BT2-BF (Zea mays, UniProt P55241+Q947C0, E123G/N131R/T142F/A160T/Q261S/R331K/A396S/K402R/V416I/C424V/S444A); test: as above
T6 construct: SH2-E co-expressed with BT2-BF, E. coli, purified
T6 sequence (Q947C0 1-475 E123G/R331K/K402R): T2 sequence (Q947C0 1-475) with E123G, R331K, K402R
T6 sequence (P55241 46-516 N131R/T142F/A160T/Q261S/A396S/V416I/C424V/S444A): T2 sequence (P55241 46-516 N131R/T142F/A160T/Q261S/A396S/V416I/C424V/S444A)
Description: as §1

L404K = molecular target: T7, L404K (Zea mays, UniProt P55241+Q947C0, L404K); test: as above
T7 construct: BT2 variant with wild type SH2, E. coli, purified
Description: as §1

E123G, R331K, L404H = molecular target: T8, E123G, R331K, L404H (Zea mays, UniProt P55241+Q947C0, E123G/R331K/L404H); test: as above
T8 construct: BT2 variant with wild type SH2, E. coli, purified
Description: as §1

L404E = molecular target: T9, L404E (Zea mays, UniProt P55241+Q947C0, L404E); test: as above
T9 construct: BT2 variant with wild type SH2, E. coli, purified
Description: as §1

SH2-ISM/BT2-BF [3] = molecular target: T3, SH2-ISM/BT2-BF; test: Pi inhibition study without 3-PGA, ATP varied (0.1-3 mM) at fixed Pi levels (10-30 mM) and sub-saturating G-1-P (1 mM), fit to mixed-type inhibition equations.; conditions: read-out: Km (mM), varied substrate ATP, Pi inhibition in the absence of 3-PGA
Description: Pi inhibition was carried out in both the presence and absence of 3-PGA with the Pi and substrate concentrations listed below.
A large α value indicates competitive inhibition whereby the inhibitor prevents binding of the substrate. If the inhibitor enhances the binding of the substrate, α is very small, and the model reduces to an uncompetitive model. […] Special cases include pure non-competitive inhibition, where α = 1 and β = 0 and partial non-competitive inhibition whereby α = 1 and 0 < β < 1.
Pi inhibition patterns in the presence and absence of 3PGA were also determined. Pi inhibition patterns were obtained by varying one substrate at several fixed concentrations of Pi, while holding the co-substrate at constant sub-saturating levels.

T7 sequence (Q947C0 1-475 L404K): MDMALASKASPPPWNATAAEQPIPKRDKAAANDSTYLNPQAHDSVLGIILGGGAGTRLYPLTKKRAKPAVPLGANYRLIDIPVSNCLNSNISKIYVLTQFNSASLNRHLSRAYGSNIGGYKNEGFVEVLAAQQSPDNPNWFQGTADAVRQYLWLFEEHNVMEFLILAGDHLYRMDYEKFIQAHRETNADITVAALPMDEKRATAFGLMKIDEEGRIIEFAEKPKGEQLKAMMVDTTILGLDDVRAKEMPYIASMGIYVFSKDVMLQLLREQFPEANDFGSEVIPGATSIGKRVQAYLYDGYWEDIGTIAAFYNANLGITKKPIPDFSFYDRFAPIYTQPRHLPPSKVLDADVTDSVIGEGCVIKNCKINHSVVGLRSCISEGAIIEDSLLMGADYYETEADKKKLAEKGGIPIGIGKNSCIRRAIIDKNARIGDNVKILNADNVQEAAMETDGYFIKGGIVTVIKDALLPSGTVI
T7 sequence (P55241 46-516, stated change not applied): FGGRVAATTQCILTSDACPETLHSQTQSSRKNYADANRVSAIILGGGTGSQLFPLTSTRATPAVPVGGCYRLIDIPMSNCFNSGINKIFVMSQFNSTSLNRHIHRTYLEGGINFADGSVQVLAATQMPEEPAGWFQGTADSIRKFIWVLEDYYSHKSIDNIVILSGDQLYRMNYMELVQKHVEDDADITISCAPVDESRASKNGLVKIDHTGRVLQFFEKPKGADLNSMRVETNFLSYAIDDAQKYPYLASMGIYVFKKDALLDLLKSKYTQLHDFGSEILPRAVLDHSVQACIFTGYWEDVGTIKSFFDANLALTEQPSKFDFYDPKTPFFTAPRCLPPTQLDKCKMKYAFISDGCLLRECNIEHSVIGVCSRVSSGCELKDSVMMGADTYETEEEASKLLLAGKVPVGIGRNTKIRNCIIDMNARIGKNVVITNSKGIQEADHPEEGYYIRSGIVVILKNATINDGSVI
T4 sequence (Q947C0 1-475 R331K): as the sequence (Q947C0 1-475 L404K) above, with R331K, K404L counted along it
T4 sequence (P55241 46-516): as the sequence (P55241 46-516, stated change not applied) above
T5 sequence (Q947C0 1-475 E123G/R331K/K402R/L404H): as the sequence (Q947C0 1-475 L404K) above, with E123G, R331K, K402R, K404H counted along it
T5 sequence (P55241 46-516, stated change not applied): as the sequence (P55241 46-516, stated change not applied) above
T8 sequence (Q947C0 1-475 E123G/R331K/L404H): as the sequence (Q947C0 1-475 L404K) above, with E123G, R331K, K404H counted along it
T8 sequence (P55241 46-516, stated change not applied): as the sequence (P55241 46-516, stated change not applied) above
T9 sequence (Q947C0 1-475 L404E): as the sequence (Q947C0 1-475 L404K) above, with K404E counted along it
T9 sequence (P55241 46-516, stated change not applied): as the sequence (P55241 46-516, stated change not applied) above
T1 sequence (Q947C0 1-475 K402R): as the sequence (Q947C0 1-475 L404K) above, with K402R, K404L counted along it
T1 sequence (P55241 46-516): as the sequence (P55241 46-516, stated change not applied) above

SMILES | 3-PGA Ka (activation constant) (K402R) | 3-PGA Ka (activation constant) (SH2-E) | 3-PGA Ka (activation constant) (SH2-ISM/BT2-BF [1]) | 3-PGA Ka (activation constant) (R331K) | 3-PGA Ka (activation constant) [2] | 3-PGA Ka (activation constant) (SH2-E/BT2-BF) | 3-PGA Ka (activation constant) (L404K) | 3-PGA Ka (activation constant) (E123G, R331K, L404H) | 3-PGA Ka (activation constant) (L404E) | Km (SH2-ISM/BT2-BF [3]) [mM]
O=C(O)[C@H](O)COP(=O)(O)O [3-PGA, 3-phosphoglycerate (3-phosphoglyceric acid)] | 0.077 ± 0.014 | 0.070 ± 0.01 | 0.23 ± 0.11 | 0.07 ± 0.008 | 0.11 ± 0.017 + | 0.36 ± 0.09 | 0.14 ± 0.047 | 0.059 ± 0.11 | 0.15 ± 0.014 | –
Nc1ncnc2c1ncn2[C@@H]1O[C@H](COP(=O)(O)OP(=O)(O)OP(=O)(O)O)[C@@H](O)[C@H]1O [ATP, adenosine 5'-triphosphate] | – | – | – | – | – | – | – | – | – | 3.6 ± 1.63
